Each block holds one compound with its values, some of them ahead of it.
Columns and labels:
[1] = target: Alpha-1D adrenergic receptor (Homo sapiens) (UniProt P25100); assay: Inhibition of Adrenergic alpha1D at 10 µM in the Eurofins-Panlabs radioligand binding assay (Eurofins_assay_203400); settings: Compound concentration 10.0 uM
[2] = target: 5-hydroxytryptamine receptor 5A (Homo sapiens) (UniProt P47898); settings: Compound concentration 10.0 uM
[3] = target: Beta-1 adrenergic receptor (Homo sapiens) (UniProt P08588); settings: Compound concentration 10.0 uM
[4] = target: Acetylcholine receptor subunit alpha (Homo sapiens) (UniProt P02708); assay: Inhibition of Nicotinic Acetylcholine D1, Bungarotoxin at 10 µM in the Eurofins-Panlabs radioligand binding assay (Eurofins_assay_258700); settings: Compound concentration 10.0 uM
[5] = target: T1, 5-hydroxytryptamine receptor 3A (Homo sapiens) (UniProt P46098); settings: Compound concentration 10.0 uM
T1 sequence (whole entry): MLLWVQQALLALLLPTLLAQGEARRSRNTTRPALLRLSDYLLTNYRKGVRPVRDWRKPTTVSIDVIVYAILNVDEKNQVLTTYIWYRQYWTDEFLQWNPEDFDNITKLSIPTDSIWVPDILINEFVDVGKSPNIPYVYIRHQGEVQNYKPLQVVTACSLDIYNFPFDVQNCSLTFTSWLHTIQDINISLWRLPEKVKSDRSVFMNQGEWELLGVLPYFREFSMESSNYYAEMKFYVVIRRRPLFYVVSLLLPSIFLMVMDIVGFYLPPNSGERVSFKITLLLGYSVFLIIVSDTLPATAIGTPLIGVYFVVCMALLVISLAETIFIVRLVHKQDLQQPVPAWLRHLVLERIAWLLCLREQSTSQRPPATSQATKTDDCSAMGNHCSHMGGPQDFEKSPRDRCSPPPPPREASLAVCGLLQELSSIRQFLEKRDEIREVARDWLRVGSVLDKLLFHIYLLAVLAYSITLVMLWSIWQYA

[6] = GPCRScan assay: inhibition of GABA/PBR; set-up: species or system Rattus norvegicus; radioligand conc. used [nm] 0.3 – 2.0, parental cells brain tissue
[7] = target: T2, Alpha-1A adrenergic receptor (Homo sapiens) (UniProt P35348); settings: Compound concentration 10.0 uM
T2 sequence (whole entry): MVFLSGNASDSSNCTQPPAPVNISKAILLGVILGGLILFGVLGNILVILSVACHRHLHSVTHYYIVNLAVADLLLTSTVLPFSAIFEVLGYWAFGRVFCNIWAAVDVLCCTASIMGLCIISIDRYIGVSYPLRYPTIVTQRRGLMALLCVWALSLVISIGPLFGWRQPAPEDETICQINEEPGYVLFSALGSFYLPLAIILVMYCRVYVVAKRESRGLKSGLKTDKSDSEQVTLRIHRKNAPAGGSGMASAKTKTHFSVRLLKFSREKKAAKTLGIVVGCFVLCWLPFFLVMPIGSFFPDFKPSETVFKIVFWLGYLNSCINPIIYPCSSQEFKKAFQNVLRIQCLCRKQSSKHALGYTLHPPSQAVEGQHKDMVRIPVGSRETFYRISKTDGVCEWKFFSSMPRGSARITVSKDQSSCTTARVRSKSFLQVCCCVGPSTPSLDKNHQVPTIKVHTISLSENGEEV

[8] = target: D(1A) dopamine receptor (Homo sapiens) (UniProt P21728); settings: Compound concentration 10.0 uM
[9] = target: Serine/threonine-protein kinase LATS1 (Homo sapiens, UniProt O95835); assay: LATS1(LAT1LGRJ) Takeda global kinase panel
Chain of Serine/threonine-protein kinase LATS1 (O95835 whole entry): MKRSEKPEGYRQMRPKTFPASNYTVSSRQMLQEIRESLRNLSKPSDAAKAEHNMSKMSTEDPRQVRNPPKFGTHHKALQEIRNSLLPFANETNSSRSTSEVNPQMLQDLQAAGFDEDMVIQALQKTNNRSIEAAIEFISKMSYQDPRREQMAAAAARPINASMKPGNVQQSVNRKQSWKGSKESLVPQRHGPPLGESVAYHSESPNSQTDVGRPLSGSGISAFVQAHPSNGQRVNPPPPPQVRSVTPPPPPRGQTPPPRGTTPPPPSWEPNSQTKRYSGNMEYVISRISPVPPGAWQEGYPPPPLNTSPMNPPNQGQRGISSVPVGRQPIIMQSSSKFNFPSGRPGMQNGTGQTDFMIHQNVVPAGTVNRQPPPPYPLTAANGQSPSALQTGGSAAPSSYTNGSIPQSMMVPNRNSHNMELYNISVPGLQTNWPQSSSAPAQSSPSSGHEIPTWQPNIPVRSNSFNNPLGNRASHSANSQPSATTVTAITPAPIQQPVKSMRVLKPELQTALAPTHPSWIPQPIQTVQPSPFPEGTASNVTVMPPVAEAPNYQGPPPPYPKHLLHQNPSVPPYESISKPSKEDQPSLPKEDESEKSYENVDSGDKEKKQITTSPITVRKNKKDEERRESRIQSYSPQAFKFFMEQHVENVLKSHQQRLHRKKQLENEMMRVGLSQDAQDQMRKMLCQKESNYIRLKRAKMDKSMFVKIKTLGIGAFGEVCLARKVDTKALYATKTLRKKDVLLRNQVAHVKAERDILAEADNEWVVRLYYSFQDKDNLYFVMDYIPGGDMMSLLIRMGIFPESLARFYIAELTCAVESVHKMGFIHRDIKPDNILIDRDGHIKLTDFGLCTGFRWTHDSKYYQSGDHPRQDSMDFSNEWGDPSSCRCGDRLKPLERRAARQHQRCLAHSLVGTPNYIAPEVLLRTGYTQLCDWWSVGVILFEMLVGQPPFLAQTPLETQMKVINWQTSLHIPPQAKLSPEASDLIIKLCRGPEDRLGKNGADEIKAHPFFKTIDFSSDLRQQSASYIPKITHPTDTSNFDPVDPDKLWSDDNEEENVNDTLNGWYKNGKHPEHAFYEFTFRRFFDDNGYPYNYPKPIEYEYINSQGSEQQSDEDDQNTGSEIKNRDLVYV

[10] = species: Rattus norvegicus; settings: Compound concentration 10.0 uM
[11] = target: Serine/threonine-protein kinase SIK1 (Homo sapiens, UniProt P57059); assay: SIK(SIK1LHY1) Takeda global kinase panel
[12] = species: Oryctolagus cuniculus; settings: Compound concentration 10.0 uM
[13] = target: Histamine H2 receptor (Homo sapiens) (UniProt P25021); settings: Compound concentration 10.0 uM
Chain of Histamine H2 receptor (Homo sapiens) (P25021 whole entry): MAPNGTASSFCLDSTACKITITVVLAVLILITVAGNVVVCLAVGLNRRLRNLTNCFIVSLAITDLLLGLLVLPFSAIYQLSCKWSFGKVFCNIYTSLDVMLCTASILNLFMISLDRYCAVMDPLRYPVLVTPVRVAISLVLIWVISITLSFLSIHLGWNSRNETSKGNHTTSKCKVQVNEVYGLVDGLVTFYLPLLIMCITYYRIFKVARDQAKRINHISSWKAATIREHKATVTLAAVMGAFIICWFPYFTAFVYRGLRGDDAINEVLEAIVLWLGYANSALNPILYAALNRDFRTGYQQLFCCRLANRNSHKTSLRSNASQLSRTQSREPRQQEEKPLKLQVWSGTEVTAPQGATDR

[14] = target: Serine/threonine-protein kinase Sgk1 (Homo sapiens, UniProt O00141); assay: SGK1(SGK1LGF1) Takeda global kinase panel
[15] = target: AP2-associated protein kinase 1 (Homo sapiens, UniProt Q2M2I8); assay: AAK1(AAK1LGF1) Takeda global kinase panel
[16] = target: Ribosomal protein S6 kinase alpha-3 (Homo sapiens, UniProt P51812); assay: RSK2(R6A3CGE1) Takeda global kinase panel
[17] = target: Serine/threonine-protein kinase TAO1 (Homo sapiens, UniProt Q7L7X3); assay: TAO1(TAO1LGF1) Takeda global kinase panel
[18] = target: 5'-AMP-activated protein kinase catalytic subunit alpha-1 (Homo sapiens, UniProt Q13131); assay: AMPKalpha1(PRA1PGF1) Takeda global kinase panel
[19] = target: Tyrosine-protein kinase ZAP-70 (Homo sapiens, UniProt P43403); assay: ZAP70(ZAP7LGP1) Takeda global kinase panel
Chain of Tyrosine-protein kinase ZAP-70 (P43403 whole entry): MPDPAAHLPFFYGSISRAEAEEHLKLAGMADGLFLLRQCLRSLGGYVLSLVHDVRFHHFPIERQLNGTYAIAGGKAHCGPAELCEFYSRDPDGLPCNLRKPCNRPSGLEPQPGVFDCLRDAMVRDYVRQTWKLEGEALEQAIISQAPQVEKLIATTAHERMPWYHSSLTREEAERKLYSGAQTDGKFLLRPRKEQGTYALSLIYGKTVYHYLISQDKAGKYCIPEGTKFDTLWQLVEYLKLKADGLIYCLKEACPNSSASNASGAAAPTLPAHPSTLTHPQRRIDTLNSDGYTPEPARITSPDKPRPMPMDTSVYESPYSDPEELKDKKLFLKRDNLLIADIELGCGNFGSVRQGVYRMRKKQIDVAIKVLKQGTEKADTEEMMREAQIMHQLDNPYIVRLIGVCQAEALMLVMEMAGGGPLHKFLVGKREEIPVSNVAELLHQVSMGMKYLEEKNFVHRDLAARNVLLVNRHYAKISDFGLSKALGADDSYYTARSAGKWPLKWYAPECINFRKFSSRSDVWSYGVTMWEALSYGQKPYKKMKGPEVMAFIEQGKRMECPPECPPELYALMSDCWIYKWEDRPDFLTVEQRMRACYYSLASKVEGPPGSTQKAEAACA

[20] = target: Focal adhesion kinase 1 (Homo sapiens, UniProt Q05397); assay: FAK(PTK2LGF1) Takeda global kinase panel
Chain of Focal adhesion kinase 1 (Q05397 whole entry): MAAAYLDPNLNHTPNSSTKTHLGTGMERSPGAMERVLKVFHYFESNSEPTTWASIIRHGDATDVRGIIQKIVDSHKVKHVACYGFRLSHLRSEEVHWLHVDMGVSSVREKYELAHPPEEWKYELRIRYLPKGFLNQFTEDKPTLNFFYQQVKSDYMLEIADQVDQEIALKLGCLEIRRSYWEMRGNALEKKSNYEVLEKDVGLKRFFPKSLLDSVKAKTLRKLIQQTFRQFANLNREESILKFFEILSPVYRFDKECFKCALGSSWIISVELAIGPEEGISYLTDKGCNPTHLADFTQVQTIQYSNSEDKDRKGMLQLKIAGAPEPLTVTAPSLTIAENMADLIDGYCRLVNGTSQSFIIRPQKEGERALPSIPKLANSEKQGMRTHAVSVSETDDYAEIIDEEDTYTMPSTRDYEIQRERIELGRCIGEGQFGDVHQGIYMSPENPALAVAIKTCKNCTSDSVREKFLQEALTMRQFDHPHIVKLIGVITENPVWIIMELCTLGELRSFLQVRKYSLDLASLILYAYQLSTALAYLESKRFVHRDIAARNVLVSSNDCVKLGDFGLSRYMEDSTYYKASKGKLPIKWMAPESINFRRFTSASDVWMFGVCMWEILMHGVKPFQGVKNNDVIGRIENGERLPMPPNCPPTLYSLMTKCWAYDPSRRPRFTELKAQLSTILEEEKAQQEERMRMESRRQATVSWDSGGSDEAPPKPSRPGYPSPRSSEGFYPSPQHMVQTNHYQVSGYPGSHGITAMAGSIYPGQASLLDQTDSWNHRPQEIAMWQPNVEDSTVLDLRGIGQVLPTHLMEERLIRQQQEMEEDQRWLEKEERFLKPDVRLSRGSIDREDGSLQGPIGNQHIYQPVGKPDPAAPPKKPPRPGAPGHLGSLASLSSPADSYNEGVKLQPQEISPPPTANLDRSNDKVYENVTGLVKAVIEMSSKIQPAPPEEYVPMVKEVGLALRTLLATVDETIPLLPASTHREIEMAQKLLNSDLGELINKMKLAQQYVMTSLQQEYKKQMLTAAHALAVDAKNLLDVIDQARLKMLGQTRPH

[21] = target: Mitogen-activated protein kinase kinase kinase 2 (Homo sapiens, UniProt Q9Y2U5); assay: MEKK2 [MAP3K2(M3K2LGF1)] Takeda global kinase panel
[22] = target: Serine/threonine-protein kinase 25 (Homo sapiens, UniProt O00506); assay: YSK1(ST25LHY1) Takeda global kinase panel
[23] = target: Calcium/calmodulin-dependent protein kinase type 1 (Homo sapiens, UniProt Q14012); assay: CaMK1alpha(CAM1LGT5) Takeda global kinase panel
[24] = target: Serine/threonine-protein kinase 38-like (Homo sapiens, UniProt Q9Y2H1); assay: NDR2(S38LLGF1) Takeda global kinase panel
Chain of Serine/threonine-protein kinase 38-like (Q9Y2H1 whole entry): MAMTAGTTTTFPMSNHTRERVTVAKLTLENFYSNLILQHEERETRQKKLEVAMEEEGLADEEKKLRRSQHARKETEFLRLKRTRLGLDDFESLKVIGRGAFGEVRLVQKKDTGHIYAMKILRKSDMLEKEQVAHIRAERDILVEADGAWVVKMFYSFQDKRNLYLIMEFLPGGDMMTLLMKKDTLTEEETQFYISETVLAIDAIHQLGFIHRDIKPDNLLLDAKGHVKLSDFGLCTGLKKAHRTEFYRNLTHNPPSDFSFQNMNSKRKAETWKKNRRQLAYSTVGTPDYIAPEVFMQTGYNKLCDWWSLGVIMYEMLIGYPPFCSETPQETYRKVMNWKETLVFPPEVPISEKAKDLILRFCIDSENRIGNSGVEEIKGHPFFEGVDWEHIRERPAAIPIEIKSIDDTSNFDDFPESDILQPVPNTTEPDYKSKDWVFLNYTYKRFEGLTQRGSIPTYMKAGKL

[25] = target: Tyrosine-protein kinase Yes (Homo sapiens, UniProt P07947); assay: Yes(YES1LGF1) Takeda global kinase panel
[26] = target: Epithelial discoidin domain-containing receptor 1 (Homo sapiens, UniProt Q08345); assay: DDR1(DDR1LGF1) Takeda global kinase panel
[27] = target: Dual specificity testis-specific protein kinase 1 (Homo sapiens, UniProt Q15569); assay: TESK1(TES1LGRA) Takeda global kinase panel
Chain of Dual specificity testis-specific protein kinase 1 (Q15569 whole entry): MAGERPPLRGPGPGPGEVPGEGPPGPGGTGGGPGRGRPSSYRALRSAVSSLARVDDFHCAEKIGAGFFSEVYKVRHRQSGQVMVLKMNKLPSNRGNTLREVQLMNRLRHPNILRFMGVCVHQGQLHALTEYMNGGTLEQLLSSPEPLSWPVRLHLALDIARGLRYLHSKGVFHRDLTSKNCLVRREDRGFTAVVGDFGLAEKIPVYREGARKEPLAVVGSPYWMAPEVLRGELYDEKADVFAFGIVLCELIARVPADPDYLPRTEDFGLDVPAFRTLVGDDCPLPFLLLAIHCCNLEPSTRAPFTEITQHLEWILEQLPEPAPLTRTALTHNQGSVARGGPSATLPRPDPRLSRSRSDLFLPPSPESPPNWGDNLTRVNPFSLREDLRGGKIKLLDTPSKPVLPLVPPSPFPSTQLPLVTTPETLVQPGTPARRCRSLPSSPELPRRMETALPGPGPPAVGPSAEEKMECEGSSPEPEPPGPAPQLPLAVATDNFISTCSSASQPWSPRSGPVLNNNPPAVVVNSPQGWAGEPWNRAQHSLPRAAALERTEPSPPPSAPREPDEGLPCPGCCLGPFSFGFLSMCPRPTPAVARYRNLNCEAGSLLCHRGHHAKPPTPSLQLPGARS

[28] = target: hERG (KCNH2) (Homo sapiens, UniProt Q12809); assay: Inhibition of Potassium Channel hERG at 10 µM in the Eurofins-Panlabs radioligand binding assay (Eurofins_assay_265900); set-up: ligand concentration 1.5 nM, non-specific ligand with concentration Astemizole, incubation time 60 min, incubation temperature 25 °C; settings: HEK-293 cells that express human recombinant hERG, probe [3H] Astemizole, compound concentration 10 uM
[29] = target: cAMP-dependent protein kinase catalytic subunit beta (Homo sapiens, UniProt P22694); assay: PKAbeta(PRCBLGF1) Takeda global kinase panel
[30] = target: Macrophage-stimulating protein receptor (Homo sapiens, UniProt Q04912); assay: Ron(MST1MGY1) Takeda global kinase panel
[31] = target: Serine/threonine-protein kinase 16 (Homo sapiens, UniProt O75716); assay: MPSK1(ST16LGF1) Takeda global kinase panel
[32] = target: Tyrosine-protein kinase Fyn (Homo sapiens, UniProt P06241); assay: Fyn(FYN1LGF5) Takeda global kinase panel

Chain of Alpha-1D adrenergic receptor (Homo sapiens) (P25100 whole entry): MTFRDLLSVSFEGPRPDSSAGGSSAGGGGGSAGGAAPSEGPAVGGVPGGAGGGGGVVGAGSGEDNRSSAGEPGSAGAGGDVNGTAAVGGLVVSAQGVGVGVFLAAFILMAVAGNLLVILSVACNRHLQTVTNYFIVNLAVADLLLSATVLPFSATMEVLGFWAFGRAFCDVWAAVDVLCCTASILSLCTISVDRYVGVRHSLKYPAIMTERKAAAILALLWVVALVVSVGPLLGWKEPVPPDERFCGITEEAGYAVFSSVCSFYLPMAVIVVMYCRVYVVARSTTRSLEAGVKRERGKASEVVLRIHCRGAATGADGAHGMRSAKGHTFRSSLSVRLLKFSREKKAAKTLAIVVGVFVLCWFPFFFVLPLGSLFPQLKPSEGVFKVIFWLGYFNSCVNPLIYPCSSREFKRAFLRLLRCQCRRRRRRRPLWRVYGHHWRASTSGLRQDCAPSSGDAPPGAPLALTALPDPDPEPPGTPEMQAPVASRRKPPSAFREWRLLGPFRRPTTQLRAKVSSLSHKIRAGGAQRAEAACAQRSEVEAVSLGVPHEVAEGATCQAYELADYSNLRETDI

SMILES: CN1C(=O)[C@@H](N2CCc3cn(Cc4ccccc4)nc3C2=O)COc2ccccc21 [TP-030-1]
inhibition [1]: -2% | inhibition [2]: 21.1% | inhibition [3]: 5.21% | inhibition [4]: -8% | inhibition [5]: 40.8% | Ki [6]: 375 nM | pKi [6]: 6.425 | inhibition [7]: -0.5% | inhibition [8]: 18.8% | IC50 [9]: 1000 nM | inhibition [10]: -7% | IC50 [11]: 1000 nM | inhibition [12]: -6% | inhibition [13]: 11.9%

IC50 [14]: 1000 nM | IC50 [15]: 1000 nM | IC50 [16]: 1000 nM | IC50 [17]: 1000 nM | IC50 [18]: 1000 nM | IC50 [19]: 1000 nM | IC50 [20]: 1000 nM | IC50 [21]: 1000 nM | IC50 [22]: 1000 nM | IC50 [23]: 1000 nM | IC50 [24]: 1000 nM | IC50 [25]: 1000 nM | IC50 [26]: 1000 nM | IC50 [27]: 1000 nM | IC50 [29]: 1000 nM | IC50 [30]: 1000 nM | IC50 [31]: 1000 nM | IC50 [32]: 1000 nM
SMILES: CN1C(=O)[C@@H](N2CCc3cn(CC4CCS(=O)(=O)CC4)nc3C2=O)COc2ccccc21 [TP-030n]
inhibition at 60 min, 10 µM [28]: 11% (not active)

From ChEMBL document CHEMBL4507327 (2021)
